The nature of one series: PAMPA permeability. Conditions: 5 hours at RT; for Papp at 5 h, 20 μM: PAMPA. Background: PAMPA measures passive passage across an artificial lipid membrane.
For series [1], the system named is C57BL/6 mice with DSS colitis. As to the kind of experiment: DSS colitis in C57BL/6 mice. The format is in vivo. Conditions: 25 mg/kg PO daily; day twelve. As to the method: Dextran sodium sulfate (DSS) was added to the water 24 hrs after compound administration and weight was measured daily.
C57BL/6 mice (20-22 grams) were fed ad lib and assigned to 4 different groups (n=8/group). […] A control group received vehicle alone. After 24 hrs, mice were weighed and DSS was added to their drinking water. Mice were then treated with the test compounds and weighed daily and the DSS water was replenished every 72 hrs for 5 days, at which point, it was replaced by regular drinking water. Mice were sacrificed on day twelve and clinical scored was assessed. Intestinal tissue for and blood were also collected. Tissues were either flash frozen and kept in −80° C. for RNA and protein isolation or placed in 10% formalin solution for future histological analysis. Blood was spun at 5K rpm for 5 min and serum was collected and kept at −20° C. for multiplex cytokine analysis.
DSS colitis mouse model: C57BL/6 mice (20-22 grains) are fed ad lib and assigned to different groups (n=8/group). […] A control group receives vehicle alone. After 24 h, mice are weighed and DSS is added to their drinking water. Mice are then treated with the test compounds and weighed daily and the DSS water is replenished every 72 liars for 5 days, at which point, it is replaced by regular drinking water. Mice are sacrificed on day twelve and clinical scored was assessed. Intestinal tissue for and blood are also collected. Tissues are either flash frozen and kept in −80° C. for RNA and protein isolation or placed in 10% formalin solution for future histological analysis.

In series [2] the test system is CaCo-2 intestinal epithelial cells. As to the kind of experiment: Transepithelial resistance (TEER) of CaCo-2 cells exposed to TNFα and IFNγ. The format is cell-based. To be noted: CaCo-2; TNFα along with compounds. Here is the method:
The intestinal epithelial barrier plays a central role in the pathophysiology of multiple chronic inflammatory and autoimmune diseases. Intestinal epithelial cells provide a physical barrier that interacts with immune cells and protects internal cavities from mucosal bacterial and antigen intrusion. Intestinal inflammation during IBD is associated with disruption of this barrier and cytokines like TNFα play important roles.
At confluence TEER is measured and TNFα along with compounds are added as described above. Compound-induced TEER is determined after correction with measurement prior to treatment.

[3] abbreviates: PAMPA permeability Classification, 20 μM donor.
Where [4] appears, read: Permeability, Pe, 20 μM donor in PBS/MeOH 90:10.

Description for PAMPA permeability: Parallel artificial membrane permeability (PAMPA) assay is a non-cell based assay designed to predict in vivo biological membrane permeability of drugs in early stage of drug discovery. […] The Corning Gentest Pre-coated PAMPA plate system was designed by 96-well insert system with a 0.45 μm PVDF (polyvinylidene fluoride) filter plate which has been pre-coated with structured tri-layers of phospholipids (lipid/oil/lipid) and a matched receiver microplate.
Donor solutions of test compounds (300 μL, 20 μM in PBS/MeOH 90:10) were added to each well of the donor plate. 200 μL of PBS/MeOH 90:10 was added to each well of the acceptor plate. The acceptor plate was coupled with the donor plate and incubated for 5 hours at room temperature (RT) without agitation. In each plate, compounds were tested in triplicate. At the end of the incubation, drug concentration in the initial donor solution, acceptor and the donor wells were determined using LC/MS/MS. A five (5) points standard curve from 0.1 to 1000 nM for each test compound were prepared. Analyte samples were diluted to within standard curve concentration with ACN/H2O 50:50 prior analysis.
All samples were analyzed by electrospray ionization (ESI) liquid chromatograph/mass spectrometry (LC/MS) system utilizing Sciex 5500 quadropule ion trap (Qtrap) mass spectrometry with Shidmazu Nexera X2 UHPLC. The LC-MS/MS instrument monitored each of the test compound in the study based of their respective mass-to-charge (m/z) transitions and MS parameters. Chromatographic separation was achieved on Phenomenex Luna C18 column (50×2.0 mm, 3 μm particle size) by using a gradient elution: mobile phase A contains 0.1% formic acid in water and mobile phase B contains 0.1% formic acid in acetonitrile; A/B (99:1) from 0 to 1 minutes; to A/B (1:99) from 1 to 4 minutes; A/B (1:99) from 4 to 8 minutes; to A/B (99:1) from 8 to 8.20 minutes; A/B (99:1) from 8.2 to 9 minutes. The flow rate was 0.4 mL/min and the column temperature was maintained at 35° C. and autosampler temperature at 4° C. For detection, the electrospray ionization operated in the positive mode using multiple reaction monitoring (MRM).
Data acquisition, and peak integrations were obtained by Analyst® Version 1.7.1 (Sciex) operating with Windows® (Microsoft). The standard curve regressions and sample concentrations were generated and calculated by Analyst®. Concentrations in the sample solutions were determined based on the measured peak area ratios from the response of the analyte to the internal standard with reference to the standard calibration curve. All sample calculations were calculated using a linear regression with 1/x^2 weighting (where x is the concentration of given calibration standard level).
Permeability of the test compounds was calculated using the following formula:
The permeability of compounds was evaluated with the parallel artificial membrane permeation assay (PAMPA) as an in vivo model of passive diffusion across a porous filter coated with a lipid/oil/lipid tri-layer artificial membrane. […] Donor solutions of test compounds (300 μL, 20 μM in PBS/MeOH 90:10) were added to each well of the donor plate. 200 μL of PBS/MeOH 90:10 was added to each well of the acceptor plate. The acceptor plate was coupled with the donor plate and incubated for 5 hours at room temperature (RT) without agitation. In each plate, compounds were tested in triplicate. At the end of the incubation, drug concentration in the initial donor solution, acceptor and the donor wells were determined using LC/MS/MS. Permeability of test compounds was calculated based on the formula described in the General Procedures above. The PAMPA permeability classification criteria are categorized into three (3) classes with a high (Pe≥1.5×10−6 cm/s), intermediate (5.5×10−8<Pe<1.5×10−6 cm/s), and low (Pe<5.5×10−8 cm/s) permeability.

Turning to “4-(4-((1-cyclopropylpiperidin-4-yl)amino)-6-methoxy-7-(3-(pyrrolidin-1-yl)propoxy)quinazolin-2-yl)thiomorpholine 1,1-dioxide [Compound 405, reference compound]”, the “Permeability, Pe” value in “PAMPA permeability” (20 μM donor in PBS/MeOH 90:10) amounted to 0.101 ×10⁻⁶ cm/s.
With `COc1cc2c(NCN3CCNCC3)nc(-c3cnc(C)s3)nc2cc1OCCCN1CCCC1` [Compound 213], in series [1], the “DSS Efficacy” value is listed as “+”. Further, the TEER result in series [2] was “+”.
For the compound `COc1cc2c(Nc3ccccn3)nc(N3CCC(F)(F)CC3)nc2cc1OCCCN1CCCC1` [Compound 34, 2-(4,4-difluoropiperidin-1-yl)-6-methoxy-N-(pyridin-2-yl)-7-(3-(pyrrolidin-1-yl)propoxy)quinazolin-4-amine], in series [1], the “DSS Efficacy” value is listed as “−”. Besides, the TEER entry in series [2] is listed as “−”.
For `COc1cc2c(NC3CCCS(=O)(=O)C3)nc(N3CCC3)nc2cc1OCCCN(C)C` (centres unmarked) [Compound 137], in series [1], the “DSS Efficacy” value is “+”. Also, the TEER result in series [2] was “+”.
For `COc1cc2c(NC3CCOCC3)nc(-c3ccc(C)o3)nc2cc1OCCCN1CCCC1` [Compound 180, 6-methoxy-2-(5-methylfuran-2-yl)-7-(3-(pyrrolidin-1-yl)propoxy)-N-(tetrahydro-2H-pyran-4-yl)quinazolin-4-amine], the “DSS Efficacy” value in series [1] is reported as “++”. The TEER entry in series [2] is reported as “++”.
Turning to `COc1cc2c(NCN3CCOCC3)nc(N3CCC(F)(F)CC3)nc2cc1OCCCN1CCCC1` [Compound 17, 2-(4,4-difluoropiperidin-1-yl)-6-methoxy-N-(morpholinomethyl)-7-(3-(pyrrolidin-1-yl)propoxy)quinazolin-4-amine], in series [1], the “DSS Efficacy” value is given as “+”. For the same compound, the TEER entry in series [2] is on record as “+”.
With `COc1cc2c(NC3CCOCC3)nc(N3CCCC3)nc2cc1C#CCN1CCCC1` [Compound 250], the “DSS Efficacy” value in series [1] was “++”. In addition, the TEER entry in series [2] is on record as “++”.
For the compound `COc1cc2c(NCC#N)nc(N3CCC(F)(F)CC3)nc2cc1OCCCN1CCCC1` [Compound 49, 2-((2-(4,4-difluoropiperidin-1-yl)-6-methoxy-7-(3-(pyrrolidin-1-yl)propoxy)quinazolin-4-yl)amino)acetonitrile], the “DSS Efficacy” value in series [1] was “−”. Moreover, the TEER result in series [2] was “−”.
`COc1cc2c(NC3CCS(=O)(=O)CC3)nc(N3CCC3)nc2cc1OCCCN1CCCC1` [Compound 81, 4-((2-(azetidin-1-yl)-6-methoxy-7-(3-(pyrrolidin-1-yl)propoxy)quinazolin-4-yl)amino)tetrahydro-2H-thiopyran 1,1-dioxide]: the “DSS Efficacy” value in series [1] is on record as “++”. Moreover, the TEER result in series [2] is listed as “+”.
Taken in the same sequence, the figures for `COc1cc2c(NC3CCCS(=O)(=O)C3)nc(N3CCC(F)(F)CC3)nc2cc1OCCCN1CCCC1` (centres unmarked) [Compound 15, 3-((2-(4,4-difluoropiperidin-1-yl)-6-methoxy-7-(3-(pyrrolidin-1-yl)propoxy)quinazolin-4-yl)amino)tetrahydro-2H-thiopyran 1,1-dioxide] were “+” and “++”.
Taken in the same sequence, the figures for `COc1cc2c(NC3CCS(=O)(=O)CC3)nc(C3CC3)nc2cc1OCCCN1CCCC1` [Compound 99, 4-((2-cyclopropyl-6-methoxy-7-(3-(pyrrolidin-1-yl)propoxy)quinazolin-4-yl)amino)tetrahydro-2H-thiopyran 1,1-dioxide] were “++” and “++”.
Taken in the same sequence, the figures for `COc1cc2c(NCO)nc(N3CCC(F)(F)CC3)nc2cc1OCCCN1CCCC1` [Compound 61, ((2-(4,4-difluoropiperidin-1-yl)-6-methoxy-7-(3-(pyrrolidin-1-yl)propoxy)quinazolin-4-yl)amino)methanol] were “+” and “+”.
As for `COc1cc2c(NCCCOC(C)C)nc(N3CCC(F)(F)CC3)nc2cc1OCCCN1CCCC1` [Compound 21, 2-(4,4-difluoropiperidin-1-yl)-N-(3-isopropoxypropyl)-6-methoxy-7-(3-(pyrrolidin-1-yl)propoxy)quinazolin-4-amine], the “DSS Efficacy” value in series [1] was “+”. The TEER entry in series [2] is reported as “−”.
Taken in the same sequence, the figures for `COc1cc2c(NC3CCCOC3)nc(N3CCC(F)(F)CC3)nc2cc1OCCCN1CCCC1` (centres unmarked) [Compound 14, 2-(4,4-difluoropiperidin-1-yl)-6-methoxy-7-(3-(pyrrolidin-1-yl)propoxy)-N-(tetrahydro-2H-pyran-3-yl)quinazolin-4-amine] were “++” and “+”.
Taken in the same sequence, the figures for `COc1cc2c(NC3CCS(=O)(=O)CC3)nc(N3CCCC3)nc2cc1C#CCN1CCCC1` [Compound 254] were “+” and “+”.
As usually defined, the Papp is a coefficient for how fast a substance crosses the barrier. Higher therefore signals ready permeation. Turning to `COc1cc2c(NC3CCN(C(C)C)CC3)nc(N3CCOCC3)nc2cc1OCCCN1CCCC1` [Compound 404, reference compound], the results for the Papp at 5 h, 20 μM in “PAMPA permeability” (setting [3]) and in the series “PAMPA permeability” (setting [4]) were less than 0.055 ×10⁻⁶ cm/s and 0.00624 ×10⁻⁶ cm/s, respectively.
Regarding `COc1cc2c(NC3CCOCC3)nc(N3CCCCC3)nc2cc1OCCCN1CCCC1` [Compound 173, 6-methoxy-2-(piperidin-1-yl)-7-(3-(pyrrolidin-1-yl)propoxy)-N-(tetrahydro-2H-pyran-4-yl)quinazolin-4-amine], the “DSS Efficacy” value in series [1] is recorded as “++”. The TEER entry in series [2] is listed as “++”.
For `COc1cc2c(N[C@@H]3CCCOC3)nc(N3CCC(F)(F)CC3)nc2cc1OCCCN1CCCC1` [Compound 12, (R)-2-(4,4-difluoropiperidin-1-yl)-6-methoxy-7-(3-(pyrrolidin-1-yl)propoxy)-N-(tetrahydro-2H-pyran-3-yl)quinazolin-4-amine], the “DSS Efficacy” value in series [1] was “++”. The TEER result in series [2] is on record as “++”.
For the compound `COc1cc2c(N[C@]3(N(C)C)C[C@@H](C)O[C@@H](C)C3)nc(N3CCC(F)(F)CC3)nc2cc1OCCCN1CCCC1` [Compound 25, (2R,4r,6S)—N-(2-(4,4-difluoropiperidin-1-yl)-6-methoxy-7-(3-(pyrrolidin-1-yl)propoxy)quinazolin-4-yl)-N′,N′,2,6-tetramethyltetrahydro-4H-pyran-4,4-diamine], in series [1], the “DSS Efficacy” value was “+”. Further, the TEER result in series [2] was “+”.
Take `COc1cc2c(NC3CCN(C(C)C)CC3)nc(N3CCCN(C)CC3)nc2cc1OCCCN1CCCCC1` [Compound 403, reference compound]: the Papp at 5 h, 20 μM is less than 0.055 ×10⁻⁶ cm/s in “PAMPA permeability” (setting [3]) and 0.0096 ×10⁻⁶ cm/s in “PAMPA permeability” (setting [4]).
`COc1cc2c(NC3CCS(=O)(=O)CC3)nc(SC(C)C)nc2cc1OCCCN1CCCC1` [Compound 105]: the “DSS Efficacy” value in series [1] is listed as “+”. Further, in series [2], the TEER entry is recorded as “+”.
